# Earlier results in US20260272852A1, “COAGULATION PATHWAY AND NICOTINAMIDE-ADENINE DINUCLEOTIDE PATHWAY MODULATING COMPOSITIONS AND METHODS OF THEIR USE” (L'OREAL, priority 2021, published 2026).
# Legend:
# [1] = topical 4% niacinamide treatment
# [2] = system: hyperpigmentation spots, fine lines, and wrinkles; conditions: moisturizer containing 5% niacinamide, half of face, 12 weeks
# [3] = system: 585-nm pulsed dye laser-induced purpuras
# [4] = system: suction induced petechia formation; conditions: 0.5% vitamin K1 cream twice daily for one week, ten healthy individuals
molecule,measurement,setting,value
NC(=O)c1cccnc1 [niacinamide],Treated patients with good-to-excellent results,[1],44%
same,"Hyperpigmentation spots, fine lines, and wrinkles, treated side compared to control side",[2],significant improvements
vitamin K,Effect of pretreatment on 585-nm pulsed dye laser-induced purpuras,[3],no effect
"CC1=C(C/C=C(\C)CCC[C@H](C)CCC[C@H](C)CCCC(C)C)C(=O)c2ccccc2C1=O [vitamin K1, phylloquinone]",Influence on suction induced petechia formation,[4],no influence
